In ChEMBL document CHEMBL4411276, “Chemistry-oriented synthesis (ChOS) and target deconvolution on neuroprotective effect of a novel scaffold, oxaza spiroquinone” (Eur J Med Chem, 2019):

Columns and labels:
[1] = molecular target: T1, Serine/threonine-protein kinase tousled-like 1 (Homo sapiens) (UniProt Q9UKI8); assay: Inhibition of human TLK1 assessed as enzyme activity at 30 uM using Histone H3 as substrate by [gamma-33P]-ATP assay relative to control; design: scale not given: the % may be the effect or the level left
T1 sequence (whole entry): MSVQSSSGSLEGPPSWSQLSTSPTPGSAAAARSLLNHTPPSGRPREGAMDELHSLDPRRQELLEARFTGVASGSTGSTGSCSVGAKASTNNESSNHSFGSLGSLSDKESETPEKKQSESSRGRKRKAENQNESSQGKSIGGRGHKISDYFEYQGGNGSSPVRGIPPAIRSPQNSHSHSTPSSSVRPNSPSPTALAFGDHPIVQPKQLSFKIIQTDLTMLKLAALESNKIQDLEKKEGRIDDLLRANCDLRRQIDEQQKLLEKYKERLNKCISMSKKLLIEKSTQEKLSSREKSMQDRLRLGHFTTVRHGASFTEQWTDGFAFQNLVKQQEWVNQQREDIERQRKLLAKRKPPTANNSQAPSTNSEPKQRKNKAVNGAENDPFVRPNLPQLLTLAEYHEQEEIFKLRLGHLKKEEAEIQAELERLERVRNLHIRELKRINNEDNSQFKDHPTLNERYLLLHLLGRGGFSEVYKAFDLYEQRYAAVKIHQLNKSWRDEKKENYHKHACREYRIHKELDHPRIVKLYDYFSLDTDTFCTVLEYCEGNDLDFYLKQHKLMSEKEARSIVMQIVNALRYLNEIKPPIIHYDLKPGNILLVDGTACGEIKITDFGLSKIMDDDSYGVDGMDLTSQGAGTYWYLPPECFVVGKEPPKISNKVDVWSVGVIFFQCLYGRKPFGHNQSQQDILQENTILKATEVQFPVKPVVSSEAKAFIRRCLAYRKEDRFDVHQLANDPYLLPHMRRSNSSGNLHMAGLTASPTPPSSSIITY

[2] = test system: BV-2; assay: Anti-inflammatory activity in mouse BV2 cells assessed as reduction in LPS-induced NO production pre-treated before LPS stimulation for 24 hrs by Griess reagent-based assay; format: functional, cell-based
[3] = Cytotoxicity against LPS-stimulated mouse BV2 cells assessed as cell survival after 24 hrs by MTT assay relative to control; format: cell-based, BV-2; design: concentration or dose not given beside the values; settings: read-out: Survival
[4] = molecular target: Mitogen-activated protein kinase 10 (Homo sapiens) (UniProt P53779); assay: Inhibition of human JNK3 assessed as enzyme activity at 30 uM using ATF2 as substrate by [gamma-33P]-ATP assay relative to control; design: scale not given: the % may be the effect or the level left
[5] = molecular target: CDK3/Cyclin E (Homo sapiens) (UniProt P24864+Q00526); assay: Inhibition of human CDK3/cyclin-E assessed as enzyme activity at 30 uM using histone H1 as substrate by [gamma-33P]-ATP assay relative to control; format: protein-complex assay; design: scale not given: the % may be the effect or the level left
[6] = molecular target: Death-associated protein kinase 1 (Homo sapiens) (UniProt P53355); assay: Inhibition of human DAPK1 assessed as enzyme activity at 30 uM using KKLNRTLSFAEPG as substrate by [gamma-33P]-ATP assay relative to control; design: scale not given: the % may be the effect or the level left
[7] = molecular target: Mitogen-activated protein kinase 9 (Homo sapiens) (UniProt P45984); assay: Inhibition of human JNK2 assessed as enzyme activity at 30 uM using ATF2 as substrate by [gamma-33P]-ATP assay relative to control; design: scale not given: the % may be the effect or the level left
[8] = molecular target: T2, Dual serine/threonine and tyrosine protein kinase (Homo sapiens) (UniProt Q6XUX3); assay: Inhibition of human RIPK5 assessed as enzyme activity at 30 uM using MBP as substrate by [gamma-33P]-ATP assay relative to control; design: scale not given: the % may be the effect or the level left
T2 sequence (whole entry): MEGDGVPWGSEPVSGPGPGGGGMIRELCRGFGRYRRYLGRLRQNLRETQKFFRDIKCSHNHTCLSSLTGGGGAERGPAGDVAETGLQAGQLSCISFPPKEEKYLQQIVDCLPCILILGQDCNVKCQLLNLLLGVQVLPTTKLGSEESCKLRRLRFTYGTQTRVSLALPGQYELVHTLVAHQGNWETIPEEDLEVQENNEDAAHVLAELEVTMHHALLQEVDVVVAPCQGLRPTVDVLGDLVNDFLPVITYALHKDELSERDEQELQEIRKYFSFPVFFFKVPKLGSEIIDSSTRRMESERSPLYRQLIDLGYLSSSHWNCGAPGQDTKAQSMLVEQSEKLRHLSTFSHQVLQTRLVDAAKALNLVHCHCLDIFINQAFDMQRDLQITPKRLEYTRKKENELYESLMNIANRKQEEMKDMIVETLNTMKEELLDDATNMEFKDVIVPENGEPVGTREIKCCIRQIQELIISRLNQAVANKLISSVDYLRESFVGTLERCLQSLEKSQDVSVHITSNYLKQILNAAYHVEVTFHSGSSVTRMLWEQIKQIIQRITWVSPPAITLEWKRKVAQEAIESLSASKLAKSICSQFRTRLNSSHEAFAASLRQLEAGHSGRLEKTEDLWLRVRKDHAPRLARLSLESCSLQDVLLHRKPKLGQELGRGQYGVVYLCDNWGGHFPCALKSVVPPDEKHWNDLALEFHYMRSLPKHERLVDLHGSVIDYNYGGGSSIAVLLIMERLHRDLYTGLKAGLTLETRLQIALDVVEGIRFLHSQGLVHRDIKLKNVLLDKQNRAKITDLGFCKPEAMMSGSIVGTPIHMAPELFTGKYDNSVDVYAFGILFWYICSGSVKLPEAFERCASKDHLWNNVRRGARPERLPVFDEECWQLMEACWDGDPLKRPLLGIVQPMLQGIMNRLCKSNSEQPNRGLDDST

[9] = molecular target: Serine/threonine-protein kinase N2 (Homo sapiens) (UniProt Q16513); assay: Inhibition of human PKN2 assessed as enzyme activity at 30 uM using KKLNRTLSVA as substrate by [gamma-33P]-ATP assay relative to control; design: scale not given: the % may be the effect or the level left

`O=C1C=CC2(C=C1)OCC(Cc1cc(C(F)(F)F)cc(C(F)(F)F)c1)C(=O)N2c1ccccc1` (centres undefined) showed an Activity [1] of 57.3 to 58.6%, an IC50 [2] of 0.07 µM and a viability at 24 h [3] of 92.1%. It also gave an Activity [4] of 70.6 to 73.4%, an Activity [5] of 58.5 to 60.2% and an Activity [6] of 45.3 to 45.4%. For the same compound, the Activity [7] was 57.8 to 58.8%, the Activity [8] was 58.6 to 59.9% and the Activity [9] was 62.2 to 64.8%.
